# Results reported in article PMC8119294 (Biochemistry, 2020).
# How the values were obtained:
# human DOP = settings: HEK 293 cells, very low potency; cited from earlier work
# rats = settings: hot plate assay; cited from earlier work
# mice = settings: radiant heat tail flick assay; cited from earlier work
# MOP = settings: read-out: Ki at MOP; CHO cells; cited from earlier work
# opioid receptors = settings: read-out: Ki for opioid receptors; cited from earlier work
# human MOP = settings: HEK 293 cells; cited from earlier work
# human KOP = settings: HEK 293 cells; cited from earlier work
# α-adrenergic receptors = settings: read-out: Ki for α-adrenergic receptors; cited from earlier work
# hMOP H321F mutant = hMOP H321F mutant (Homo sapiens, UniProt P35372, H321F); assay: Gαi-mediated cAMP inhibition assay, hMOP H321F mutant; assay type: cell-based; settings: for potency reduction at His321F mutant compared to wild-type receptor: EC50 mutant vs wild type; for decrease in efficacy at His321F mutant: Emax mutant vs wild type; for Emax: normalized to Emax of DAMGO
# DOP = settings: read-out: Ki at DOP; CHO cells; cited from earlier work
# KOP = settings: read-out: Ki at KOP; CHO cells; cited from earlier work
# [1] = target: human opioid receptor OPRM_HUMAN (hMOP), wild type (Homo sapiens, UniProt P35372); assay type: cell-based; settings: for Emax: WT hMOP, normalized to Emax of DAMGO
# hMOP Asn129K mutant = hMOP Asn129K mutant (Homo sapiens, UniProt P35372, N129K); assay: Gαi-mediated cAMP inhibition assay, hMOP Asn129K mutant; assay type: cell-based; settings: for Emax: normalized to Emax of DAMGO
# [2] = HEK 293T cells, hMOP H321F mutant, cAMP assay, Gi
# [3] = HEK 293T cells, wild type (WT) hMOP, cAMP assay, Gi
# [4] = HEK 293T cells, hMOP Asn129K mutant, cAMP assay, Gi
# human opioid receptor OPRM_HUMAN (hMOP), wild type, sequence (P35372 whole entry): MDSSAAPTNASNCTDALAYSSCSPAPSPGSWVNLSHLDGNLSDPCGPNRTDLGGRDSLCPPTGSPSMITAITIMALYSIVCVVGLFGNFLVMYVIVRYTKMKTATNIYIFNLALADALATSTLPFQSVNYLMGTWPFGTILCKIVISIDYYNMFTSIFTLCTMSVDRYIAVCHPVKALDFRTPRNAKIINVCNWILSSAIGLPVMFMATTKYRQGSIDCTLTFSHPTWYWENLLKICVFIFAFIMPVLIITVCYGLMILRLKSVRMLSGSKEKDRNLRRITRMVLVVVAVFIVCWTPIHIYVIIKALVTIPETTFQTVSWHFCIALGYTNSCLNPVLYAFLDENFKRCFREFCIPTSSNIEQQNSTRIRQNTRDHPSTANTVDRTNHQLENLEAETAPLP
# hMOP Asn129K mutant, sequence (P35372 whole entry N129K): as the sequence (P35372 whole entry) above, with N129K counted along it
# hMOP H321F mutant, sequence (P35372 whole entry H321F): as the sequence (P35372 whole entry) above, with H321F counted along it
molecule,measurement,setting,value
mitragynine [MG],functional activity at human DOP,human DOP,competitive antagonists
same,analgesic effect compared to morphine,rats,significantly lower than morphine
same,analgesic effect compared to morphine,mice,significantly lower than morphine
same,Ki,MOP,230 ± 47 nM
same,Ki,opioid receptors,161 to 198 nM
same,functional activity at human MOP,human MOP,partial agonists
same,functional activity at human KOP,human KOP,competitive antagonists
same,Ki,α-adrenergic receptors,1340 to 9290 nM
"CC[C@@H]1CN2CC[C@@]3(O)C(=Nc4cccc(OC)c43)[C@@H]2C[C@@H]1/C(=C\OC)C(=O)OC [7OH, 7-hydroxymitragynine]",potency reduction at His321F mutant compared to wild-type receptor,hMOP H321F mutant; cAMP assay,2.5 fold
same,decrease in efficacy at His321F mutant,hMOP H321F mutant; cAMP assay,> 25%
same,Emax,hMOP H321F mutant; hMOP H321F mutant,60 ± 9%
same,Ki,DOP,91 ± 8 nM
same,Ki,KOP,132 ± 7 nM
same,functional activity at human DOP,human DOP,competitive antagonists
same,analgesic effect compared to morphine,rats,significantly more potent than morphine
same,analgesic effect compared to morphine,mice,significantly more potent than morphine
same,Ki,MOP,37 ± 4 nM
same,Emax,[1],89±3.8%
same,functional activity at human MOP,human MOP,partial agonists
same,functional activity at human KOP,human KOP,competitive antagonists
same,potency reduction at Asn129K mutant compared to wild-type receptor,"hMOP Asn129K mutant; EC50 mutant vs wild type, cAMP assay",5 fold
same,Emax,hMOP Asn129K mutant; hMOP Asn129K mutant,92 ± 3.2%
"CC[C@@H]1CN2CC[C@]3(Nc4cccc(OC)c4C3=O)[C@@H]2C[C@@H]1/C(=C\OC)C(=O)OC [MP, mitragynine pseudoindoxyl]",potency reduction at His321F mutant compared to wild-type receptor,hMOP H321F mutant; cAMP assay,32 fold
same,decrease in efficacy at His321F mutant,hMOP H321F mutant; cAMP assay,> 25%
same,EC50,hMOP H321F mutant; [2],16.9 nM
same,pEC50 ± SEM,hMOP H321F mutant; [2],7.77 ± 0.27
same,Emax,hMOP H321F mutant; hMOP H321F mutant,58.9 ± 6.7%
same,Ki,DOP,3 ± 1.3 nM
same,Ki,KOP,24 ± 0.9 nM
same,potency relative to morphine,mice,1.5 fold
same,Ki,MOP,0.8 ± 0.2 nM
same,EC50,[1]; [3],0.55 nM
same,pEC50 ± SEM,[1]; [3],9.28±0.11
same,Emax,[1],81±3.6%
same,EC50,hMOP Asn129K mutant; [4],0.9 nM
same,pEC50 ± SEM,hMOP Asn129K mutant; [4],9.04 ± 0.084
same,Emax,hMOP Asn129K mutant; hMOP Asn129K mutant,88 ± 2.97%
